Measurements as given in PMC11787520, “Structural basis of the bifunctionality of Marinobacter salinexigens ZYF650^T glucosylglycerol phosphorylase in glucosylglycerol catabolism” (The Journal of Biological Chemistry, 2024).

Legend:
[1] = target: T1, MsGGP (Marinobacter salinexigens, UniProt A0A5B0VBK8); test: X-ray crystal structure, […] Å; type: binding; conditions: active site of chains A and E; reaction intermediate
T1 construct: gene gtfA; full length, 480 residues, subunit 54,844 Da, N-terminal His6 tag (pET28b), E. coli BL21(DE3); six protomers in asymmetric unit

[2] = target: T2, MsGGP (Marinobacter salinexigens, UniProt A0A5B0VBK8, D289A); test: ion exchange chromatography, activity relative to wild type; type: biochemical; conditions: 20 mM GG, 20 mM potassium phosphate, pH 6.6, 45 °C
T2 construct: gene gtfA; full length, 480 residues, subunit 54,844 Da, N-terminal His6 tag (pET28b), E. coli BL21(DE3); six protomers in asymmetric unit

[3] = target: T3, MsGGP (Marinobacter salinexigens, UniProt A0A5B0VBK8, E231A); test: as above; type: biochemical; conditions: 20 mM GG, 20 mM potassium phosphate, pH 6.6, 45 °C
T3 construct: gene gtfA; full length, 480 residues, subunit 54,844 Da, N-terminal His6 tag (pET28b), E. coli BL21(DE3); six protomers in asymmetric unit

[4] = target: T4, MsGGP (Marinobacter salinexigens, UniProt A0A5B0VBK8, D190A); test: as above; type: biochemical; conditions: 20 mM GG, 20 mM potassium phosphate, pH 6.6, 45 °C
T4 construct: gene gtfA; full length, 480 residues, subunit 54,844 Da, N-terminal His6 tag (pET28b), E. coli BL21(DE3); six protomers in asymmetric unit

[5] = target: T1, MsGGP; test: X-ray crystal structure, […] Å; type: binding; conditions: active site, together with glycerol

O=P(O)(O)O[C@H]1O[C@H](CO)[C@@H](O)[C@H](O)[C@H]1O [α-D-glucose-1-phosphate]
X-ray crystal structure, 2.7 Å [1]: the structure of MsGGP in complex with αGlc1-P was successfully determined

OCC(CO)O[C@H]1O[C@H](CO)[C@@H](O)[C@H](O)[C@H]1O [2-O-α-Glucosylglycerol]
enzyme activity relative to wildtype [2]: nearly complete loss of enzyme activity following the mutation of these residues to alanine
enzyme activity relative to wildtype [3]: nearly complete loss of enzyme activity following the mutation of these residues to alanine
enzyme activity relative to wildtype [4]: nearly complete loss of enzyme activity following the mutation of these residues to alanine

OC[C@H]1O[C@H](O)[C@H](O)[C@@H](O)[C@@H]1O [glucose]
X-ray crystal structure, 2.5 Å [5]: each protomer features an α-glucose and a glycerol molecule occupying the active site
